Measurements from patent US20220031800A1, “PEPTIDES FOR TREATING NON-EXUDATIVE MACULAR DEGENERATION AND OTHER DISORDERS OF THE EYE” (Allegro Pharmaceuticals, LLC, priority 2019, published 2022).
Square brackets hold non-standard residues; d marks the D form. Peptide text beside a SMILES is read from it. Cya = N[C@@H](CS(=O)(=O)O)C(=O)O

Tests used:
[1] = test system: study eye of subjects with intermediate non-exudative AMD; test: Microperimetry (mean retinal sensitivity, number of loci summed); type: in vivo, human
OIR mouse retina = test: RNA-seq gene expression in OIR mouse retina after intravitreal injection; type: in vivo; details: 10 μg/1 μL single intravitreal injection
Description: Purpose: This study used RNA-seq to identify the genes regulated in the mouse retina following risuteganib intravitreal injection. Analysis of the specific genes regulated by risuteganib enables identification of biological processes and pathways modulated by the oligopeptide. […] Risuteganib causes reduced leukocyte attachment, reduced leukocyte trans-endothelial migration and reduced expression of complement 3 receptor. Methods: OIR mouse pups received 5 days of hyperoxia (75% O2) to obliterate developing retinal vessels. Following their return to room air, retinal neovascularization develops due to an imbalance in oxygen supply and demand. At the time of return to room air, both eyes of OIR pups received either vehicle injection or a single intravitreal injection of risuteganib solution at concentration of 10 μg/1 μL. A separate group of pups raised at room air served as control and received either vehicle or risuteganib solution injection consistent with the OIR mouse group. 5 days after injection, at the height of retinal neovascularization in OIR mice, all mice are sacrificed, retina tissue extracted for RNA isolation and RNA-seq. The generated reads were then aligned to the mouse reference genome/transcriptome and gene expression quantified for differential expression analysis and fold change calculation. The list of regulated genes was then submitted to identify biological processes and pathways that are regulated after risuteganib exposure compared to vehicle control in OIR mice or control mice, and in OIR retina compared to control retina that both received vehicle injections.

primary human RPE cells = test: Mitochondrial membrane potential (JC-1) in primary human RPE cells exposed to hydroquinone; type: cell-based; details: 0.4 mM risuteganib co-treatment with HQ 125-180 uM
Protocol: Purpose: To determine if risuteganib protects against hydroquinone (HQ)-mediated cell injury, elevated ROS level and reduced mitochondrial membrane potential (Δψm) in cultured human RPE cells. Elevated ROS levels increase oxidative stress in the cells, leading to reduced cell health and cell death. Loss of ΔΨm is a marker for early cell death. Methods: Primary human RPE cells were seeded on collagen-coated 96-well plates in triplicates at 8K, 10K and […] cells/well, respectively. Cells reached 80% to 100% confluence 24 hours after plating, and confluent cells were then grown for an additional 4 or 5 days until growth was density arrested. On day 6 after plating, cells in the plate upper half were loaded with 20 μM CM-H2DCFDA (measures ROS level) and in the plate lower half with 10 μM JC-1 (measures Δψm) for 30 minutes at 37° C. […] For the ROS and Δψm assays, a fluorescence plate reader was used to quantify ROS production (490-nm excitation, 522-nm emission), and green monomer of JC-1 (490-nm excitation, 522-nm emission) and red JC-1 aggregate (535-nm excitation, 590-nm emission), respectively. […] The WST reagent was quantified with a plate reader at 440 nm and a reference wavelength at 690 nm. Data were normalized to untreated control as 100% and were expressed as the mean±SD.

[2] = Week 12, Group 2 (1 mg IVT day 1 + wk 16)
[3] = Week 32, Group 1 crossover (sham day 1, 1 mg IVT wk 16)
[4] = Week 32, Group 2 (1 mg IVT day 1 + wk 16)
[5] = Week 32 change, Group 1 crossover (sham day 1, 1 mg IVT wk 16)
[6] = Week 32 change, Group 2 (1 mg IVT day 1 + wk 16)

C[C@@H](O)[C@H](NC(=O)[C@H](CS(=O)(=O)O)NC(=O)CNC(=O)[C@H](CCCNC(=N)N)NC(=O)CN)C(=O)N1CCC[C@H]1C(=O)O [risuteganib, Glycyl-L-arginylglycyl-3-sulfo-L-alanyl-L-threonyl-L-proline] (H-GRG[Cya]TP-OH)
Microperimetry mean sensitivity, mean [1, 2]: 7.52 dB | Microperimetry mean sensitivity, median [1, 2]: 7.50 dB | Microperimetry number of loci summed (reduced sensitivity), mean [1, 2]: 84.9 | Microperimetry number of loci summed (reduced sensitivity), median [1, 2]: 86.5 | Microperimetry mean sensitivity change, median ([1]; Week 12 change, Group 2 (1 mg IVT day 1 + wk 16)): −1.50 dB | Microperimetry mean sensitivity, mean [1, 3]: 11.44 dB | Microperimetry mean sensitivity, median [1, 3]: 13.70 dB | Microperimetry number of loci summed (reduced sensitivity), mean [1, 3]: 67.6 | Microperimetry number of loci summed (reduced sensitivity), median [1, 3]: 60.0 | Microperimetry mean sensitivity, mean [1, 4]: 8.25 dB | Microperimetry mean sensitivity, median [1, 4]: 8.50 dB | Microperimetry number of loci summed (reduced sensitivity), median [1, 4]: 79.5 | Microperimetry mean sensitivity change, median [1, 5]: −0.20 dB | Microperimetry number of loci summed change, mean [1, 5]: 7.9 | Microperimetry mean sensitivity change, median [1, 6]: −0.40 dB | Microperimetry number of loci summed change, mean [1, 6]: 1.0 | Increase (improvement) in mean retinal sensitivity ([1]; risuteganib responders at Week 32 (FIG. 5)): 2.2 dB | Number of genes regulated in the OIR retina with statistical significance (OIR mouse retina; 5 days after injection, vs vehicle): around 600 genes | Expression of integrin subunits α5, α6, αM, β1, β2, and β5 (OIR mouse retina; OIR retina, 5 days after injection): down regulated | Number of biological pathways down-regulated (OIR mouse retina; OIR retina, 10 of them up-regulated in OIR retina): 11 | Improvement of HQ-reduced Δψm (primary human RPE cells): 16%
